Measured values taken from PubChem BioAssay AID2060627 (Molecular Pharmacology Branch, DTP, NCI, 2025).

System: 156681-154-R-J1-PDC complex spheroid viability
Assay: Anticancer human tumor 156681-154-R-J1-PDC patient-derived melanoma cell line growth inhibition [CLK]
Settings: for IC50: curve of first compound; for viability, T/C: stronger effect = lower value
Method in brief: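 Patient-derived tumor cells grown as complex spheroids with HUVEC endothelial cells and mesenchymal stem cells, treated with drug combinations. Concentrations descend in half-log steps from near clinical Cmax, or from 10 microM if Cmax unknown.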

[1] = second compound 0.0316 µM, first compound 0.0316 µM
[2] = second compound 0.0316 µM, first compound 0.1 µM
[3] = second compound 0.0316 µM, first compound 0.316 µM
[4] = second compound 0.0316 µM, first compound 1 µM
[5] = second compound 0.1 µM, first compound 0.0316 µM
[6] = second compound 0.1 µM, first compound 0.1 µM
[7] = second compound 0.1 µM, first compound 0.316 µM
[8] = second compound 0.1 µM, first compound 1 µM
[9] = second compound 0.316 µM, first compound 0.0316 µM
[10] = second compound 0.316 µM, first compound 0.1 µM
[11] = second compound 0.316 µM, first compound 0.316 µM
[12] = second compound 0.316 µM, first compound 1 µM
[13] = second compound 1 µM, first compound 0.0316 µM
[14] = second compound 1 µM, first compound 0.1 µM
[15] = second compound 1 µM, first compound 0.316 µM
[16] = second compound 1 µM, first compound 1 µM
[17] = second compound 3.16 µM, first compound 0.0316 µM
[18] = second compound 3.16 µM, first compound 0.1 µM
[19] = second compound 3.16 µM, first compound 0.316 µM
[20] = second compound 3.16 µM, first compound 1 µM
[21] = second compound 10 µM, first compound 0.0316 µM
[22] = second compound 10 µM, first compound 0.1 µM
[23] = second compound 10 µM, first compound 0.316 µM
[24] = second compound 10 µM, first compound 1 µM
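Note: spheroids exposed to the agents for seven days.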
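Throughout, for viability, T/C: 100% = DMSO vehicle control viability.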

SMILES: CC(=O)O[C@H]1C(=O)[C@@]2(C)[C@H]([C@H](OC(=O)c3ccccc3)[C@]3(O)C[C@H](OC(=O)[C@H](O)[C@@H](NC(=O)c4ccccc4)c4ccccc4)C(C)=C1C3(C)C)[C@]1(OC(C)=O)CO[C@@H]1C[C@@H]2O + CN1CCN(c2cc(C(=O)Nc3cc4cc(-c5cnn(C)c5)ccc4cn3)ccn2)CC1
- IC50 (second compound 0.0316 µM): < 31.6 nM
- IC50 (second compound 0.1 µM): < 31.6 nM
- IC50 (second compound 0.316 µM): < 31.6 nM
- IC50 (second compound 1 µM): < 31.6 nM
- IC50 (second compound 3.16 µM): < 31.6 nM
- IC50 (second compound 10 µM): < 31.6 nM
- viability, T/C [1]: 19.4%
- viability, T/C [2]: 13.1%
- viability, T/C [3]: 18.9%
- viability, T/C [4]: 16.5%
- viability, T/C (second compound 0.0316 µM, first compound 3.16 µM): 23.6%
- viability, T/C (second compound 0.0316 µM, first compound 10 µM): 28.9%
- viability, T/C [5]: 17.6%
- viability, T/C [6]: 14.6%
- viability, T/C [7]: 15.4%
- viability, T/C [8]: 12.5%
- viability, T/C (second compound 0.1 µM, first compound 3.16 µM): 16.3%
- viability, T/C (second compound 0.1 µM, first compound 10 µM): 24.3%
- viability, T/C [9]: 15.1%
- viability, T/C [10]: 21.1%
- viability, T/C [11]: 13.8%
- viability, T/C [12]: 13%
- viability, T/C (second compound 0.316 µM, first compound 3.16 µM): 14.8%
- viability, T/C (second compound 0.316 µM, first compound 10 µM): 16.8%
- viability, T/C [13]: 0.09%
- viability, T/C [14]: 0.13%
- viability, T/C [15]: 0.13%
- viability, T/C [16]: 0.34%
- viability, T/C (second compound 1 µM, first compound 3.16 µM): 0.12%
- viability, T/C (second compound 1 µM, first compound 10 µM): 0.13%
- viability, T/C [17]: 0.09%
- viability, T/C [18]: 0.74%
- viability, T/C [19]: 0.35%
- viability, T/C [20]: 0.08%
- viability, T/C (second compound 3.16 µM, first compound 3.16 µM): 0.23%
- viability, T/C (second compound 3.16 µM, first compound 10 µM): 0.22%
- viability, T/C [21]: 0.09%
- viability, T/C [22]: 0.7%
- viability, T/C [23]: 0.46%
- viability, T/C [24]: 0.52%
- viability, T/C (second compound 10 µM, first compound 3.16 µM): 0.61%
- viability, T/C (second compound 10 µM, first compound 10 µM): 0.3%

SMILES: CCc1c2c(nc3ccc(O)cc13)-c1cc3c(c(=O)n1C2)COC(=O)[C@]3(O)CC + CN1CCN(c2cc(C(=O)Nc3cc4cc(-c5cnn(C)c5)ccc4cn3)ccn2)CC1
- IC50 (second compound 0.0316 µM): < 3.16 nM
- IC50 (second compound 0.1 µM): < 3.16 nM
- IC50 (second compound 0.316 µM): < 3.16 nM
- IC50 (second compound 1 µM): < 3.16 nM
- IC50 (second compound 3.16 µM): < 3.16 nM
- IC50 (second compound 10 µM): < 3.16 nM
- viability, T/C (second compound 0.0316 µM, first compound 0.00316 µM): 42.5%
- viability, T/C (second compound 0.0316 µM, first compound 0.01 µM): 14.9%
- viability, T/C [1]: 15%
- viability, T/C [2]: 16.9%
- viability, T/C [3]: 17.2%
- viability, T/C [4]: 4.31%
- viability, T/C (second compound 0.1 µM, first compound 0.00316 µM): 24.5%
- viability, T/C (second compound 0.1 µM, first compound 0.01 µM): 15.2%
- viability, T/C [5]: 12.1%
- viability, T/C [6]: 16.4%
- viability, T/C [7]: 13.9%
- viability, T/C [8]: 2.11%
- viability, T/C (second compound 0.316 µM, first compound 0.00316 µM): 12.3%
- viability, T/C (second compound 0.316 µM, first compound 0.01 µM): 12.3%
- viability, T/C [9]: 14.7%
- viability, T/C [10]: 5.42%
- viability, T/C [11]: 1.97%
- viability, T/C [12]: 1.05%
- viability, T/C (second compound 1 µM, first compound 0.00316 µM): 0.13%
- viability, T/C (second compound 1 µM, first compound 0.01 µM): 0.25%
- viability, T/C [13]: 0.33%
- viability, T/C [14]: 2.85%
- viability, T/C [15]: 2.44%
- viability, T/C [16]: 0.97%
- viability, T/C (second compound 3.16 µM, first compound 0.00316 µM): 0.1%
- viability, T/C (second compound 3.16 µM, first compound 0.01 µM): 2.44%
- viability, T/C [17]: 1.86%
- viability, T/C [18]: 0.73%
- viability, T/C [19]: 1.39%
- viability, T/C [20]: 0.88%
- viability, T/C (second compound 10 µM, first compound 0.00316 µM): 0.64%
- viability, T/C (second compound 10 µM, first compound 0.01 µM): 3.44%
- viability, T/C [21]: 2.3%
- viability, T/C [22]: 1.35%
- viability, T/C [23]: 2.63%
- viability, T/C [24]: 2.01%
